{"source": "patent US7211572B2", "about": "(Japan Tobacco Inc., priority 2003, dated 2007)", "biological_target": "T1, HIV integrase (Human immunodeficiency virus type 1 group M subtype B, UniProt P12497, F1332H)", "T1 construct": "HIV integrase full length gene; made in house; host or cells: Escherichia coli BL21(DE3), plasmid pET21a-INH", "assay": "Determination of enzyme (HIV integrase) inhibitory activity", "type": "biochemical", "conditions": "recombinant HIV integrase (F185H), strand transfer ELISA, absorbance at 450 nm", "excerpt": "The following explains evaluation methods of the HIV integrase inhibitory activity of the compound of the present invention.\n(i) Construction of Recombinant Integrase Gene Expression System\nThe 185th phenylalanine of HIV integrase full length gene (J. Virol., 67, 425–437 (1993)) was substituted by histidine and inserted into the restriction enzyme NdeI and XhoI sites of plasmid pET21a(+) (Novagen), whereby an integrase expression vector pET21a-INH was constructed.\n(ii) Production and Purification of Integrase Protein\nEscherichia coli recombinant BL21(DE3) transformed with plasmid pET21a-INH obtained in (i) was shake cultured at 37° C. in a liquid medium containing ampicillin. When the culture reached the logarithmic growth phase, isopropyl-β-D-thiogalactopyranoside was added to promote expression of integrase gene. The culture was continued for 3 hr to promote accumulation of the integrase protein. The recombinant E. coli was collected in pellets by centrifugal separation and preserved at −80° C.\nThe E. coli was suspended in Lysis buffer (20 mM HEPES (pH 7.5), 5 mM DTT, 10 mM CHAPS, 10% glycerol) containing 1M sodium chloride and subjected to repeat pressurization and depressurization for rupture, and centrifugal separation at 4° C., 40,000×g, 60 min to recover a water-soluble fraction (supernatant). This was diluted 10-fold with Lysis buffer free of sodium chloride, mixed with SP-Sepharose (Pharmacia Corporation) and stirred at 4° C. for 30 min to allow adsorption of integrase protein to the resin. The resin was washed with Lysis buffer containing 100 mM sodium chloride and the integrase protein was eluted with Lysis buffer containing 1M sodium chloride.\nThe eluted integrase protein solution was applied to a Superdex 75 (Pharmacia Corporation) column for gel filtration. The protein was eluted with Lysis buffer containing 1M sodium chloride.\nThe obtained fractions of the integrase protein were collected and preserved at −80° C.\n(iii) Preparation of DNA Solution\nThe following DNA synthesized by Greiner was dissolved in TE buffer (10 mM Tris-hydrochloric acid (pH 8.0), 1 mM EDTA) and mixed with donor DNA, target DNA, and each complementary strand (+ and − strands) to 1 μM. The mixture was heated at 95° C. for 5 min, 80° C. for 10 min, 70° C. for 10 min, 60° C. for 10 min, 50° C. for 10 min and 40° C. for 10 min and preserved at 25° C. to give a double stranded DNA, which was used for the test.\nDonor DNA (− strand having biotin attached to the 5′ terminal)\n(iv) Determination of Enzyme (HIV Integrase) Inhibitory Activity\nThe donor DNA was diluted with TE buffer to 10 nM, of which 50 μl was added to each well of streptavidin-coated microtiter plate (Roche) and allowed to adsorb at 37° C. for 60 min. The DNA was washed with phosphate buffer (Dulbecco PBS, Sanko Junyaku Co., Ltd.) containing 0.1% Tween 20 and phosphate buffer. Then, a reaction mixture (70 μl) having the following composition, a test substance (10 μl) diluted with the reaction mixture and 100 μg/ml integrase protein (10 μl) were added to each well and reacted at 37° C. for 60 min.\nComposition of the reaction mixture: 30 mM MOPS (3-morpholinopropanesulfonic acid), 5 mM magnesium chloride, 3 mM DTT (dithiothreitol), 0.1 mg/ml BSA (bovine serum albumin), 5% glycerol, 10% DMSO (dimethyl sulfoxide), 0.01% Tween 20.\nThen, 50 nM target DNA (10 μl) was added, reacted at 37° C. for 10 min and washed with phosphate buffer containing 0.1% Tween 20 to stop the reaction.\nThen, 100 mU/ml peroxidase labeled anti-digoxigenin antibody solution (Roche, 100 μl) was added, and the mixture was reacted at 30° C. for 60 min, followed by washing with phosphate buffer containing 0.1% Tween 20.\nA peroxidase color solution (Bio Rad, 100 μl) was added and allowed to react at room temperature for 4 min. The color reaction was stopped by adding 1N sulfuric acid (100 μl). The absorbance at 450 nm was measured. […]", "note": "pIC50: −log10 of the molar value.", "data": [{"smiles": "CS(=O)(=O)Cc1cc(=O)c(O)c2n1CCN(Cc1ccc(Cl)c(Cl)c1)C2=O", "note": "[Example 31, 2-(3,4-dichlorobenzyl)-9-hydroxy-6-methanesulfonylmethyl-3,4-dihydro-2H-pyrido[1,2-a]pyrazine-1,8-dione]", "values": [{"measurement": "pIC50", "value": "7.00 to 8.00"}]}, {"smiles": "CS(=O)(=O)CCC1CN(Cc2ccc(Cl)c(Cl)c2)C(=O)c2c(O)c(=O)ccn21", "note": "(centres unmarked) [Example 32, 2-(3,4-dichlorobenzyl)-9-hydroxy-4-(2-methanesulfonylethyl)-3,4-dihydro-2H-pyrido[1,2-a]pyrazine-1,8-dione]", "values": [{"measurement": "pIC50", "value": "7.00 to 8.00"}]}, {"smiles": "CSCCC1CN(Cc2ccc(Cl)c(Cl)c2)C(=O)c2c(O)c(=O)ccn21", "note": "(centres unmarked) [Example 33, 2-(3,4-dichlorobenzyl)-9-hydroxy-4-(2-methylsulfanylethyl)-3,4-dihydro-2H-pyrido[1,2-a]pyrazine-1,8-dione]", "values": [{"measurement": "pIC50", "value": "7.00 to 8.00"}]}, {"smiles": "COC(=O)c1cc(=O)c(O)c2n1CCN(Cc1ccc(Cl)c(Cl)c1)C2=O", "note": "[Example 34, methyl 2-(3,4-dichlorobenzyl)-9-hydroxy-1,8-dioxo-1,3,4,8-tetrahydro-2H-pyrido[1,2-a]pyrazine-6-carboxylate]", "values": [{"measurement": "pIC50", "value": "7.00 to 8.00"}]}, {"smiles": "CC(=O)c1cc(=O)c(O)c2n1CCN(Cc1ccc(Cl)c(Cl)c1)C2=O", "note": "[Example 35, 6-acetyl-2-(3,4-dichlorobenzyl)-9-hydroxy-3,4-dihydro-2H-pyrido[1,2-a]pyrazine-1,8-dione]", "values": [{"measurement": "pIC50", "value": "7.00 to 8.00"}]}, {"smiles": "CC(C)SCc1cc(=O)c(O)c2n1CCN(Cc1ccc(Cl)c(Cl)c1)C2=O", "note": "[Example 36, 2-(3,4-dichlorobenzyl)-9-hydroxy-6-isopropylsulfanylmethyl-3,4-dihydro-2H-pyrido[1,2-a]pyrazine-1,8-dione]", "values": [{"measurement": "pIC50", "value": "7.00 to 8.00"}]}, {"smiles": "CC(C)S(=O)(=O)Cc1cc(=O)c(O)c2n1CCN(Cc1ccc(Cl)c(Cl)c1)C2=O", "note": "[Example 37, 2-(3,4-dichlorobenzyl)-9-hydroxy-6-isopropylsulfonylmethyl-3,4-dihydro-2H-pyrido[1,2-a]pyrazine-1,8-dione]", "values": [{"measurement": "pIC50", "value": "7.00 to 8.00"}]}, {"smiles": "CC(C)OCc1cc(=O)c(O)c2n1CCN(Cc1ccc(Cl)c(Cl)c1)C2=O", "note": "[Example 38, 2-(3,4-dichlorobenzyl)-9-hydroxy-6-isopropoxymethyl-3,4-dihydro-2H-pyrido[1,2-a]pyrazine-1,8-dione]", "values": [{"measurement": "pIC50", "value": "7.00 to 8.00"}]}, {"smiles": "CC(C)COCc1cc(=O)c(O)c2n1CCN(Cc1ccc(Cl)c(Cl)c1)C2=O", "note": "[Example 39, 2-(3,4-dichlorobenzyl)-9-hydroxy-6-isobutoxymethyl-3,4-dihydro-2H-pyrido[1,2-a]pyrazine-1,8-dione]", "values": [{"measurement": "pIC50", "value": "7.00 to 8.00"}]}, {"smiles": "CC(O)c1cc(=O)c(O)c2n1CCN(Cc1ccc(Cl)c(Cl)c1)C2=O", "note": "(centres unmarked) [Example 40, 2-(3,4-dichlorobenzyl)-9-hydroxy-6-(1-hydroxyethyl)-3,4-dihydro-2H-pyrido[1,2-a]pyrazine-1,8-dione]", "values": [{"measurement": "pIC50", "value": "7.00 to 8.00"}]}, {"smiles": "O=C1c2c(O)c(=O)cc(COc3ccccc3)n2CCN1Cc1ccc(Cl)c(Cl)c1", "note": "[Example 41, 2-(3,4-dichlorobenzyl)-9-hydroxy-6-phenoxymethyl-3,4-dihydro-2H-pyrido[1,2-a]pyrazine-1,8-dione]", "values": [{"measurement": "pIC50", "value": "7.00 to 8.00"}]}, {"smiles": "O=C1c2c(O)c(=O)ccn2CCN1Cc1ccc(F)cc1", "note": "[Example 42, 2-(4-fluorobenzyl)-9-hydroxy-3,4-dihydro-2H-pyrido[1,2-a]pyrazine-1,8-dione]", "values": [{"measurement": "pIC50", "value": "7.00 to 8.00"}]}, {"smiles": "O=C1c2c(O)c(=O)ccn2CCN1Cc1cccc(Cl)c1", "note": "[Example 43, 2-(3-chlorobenzyl)-9-hydroxy-3,4-dihydro-2H-pyrido[1,2-a]pyrazine-1,8-dione]", "values": [{"measurement": "pIC50", "value": "7.00 to 8.00"}]}, {"smiles": "O=C1c2c(O)c(=O)ccn2CCN1Cc1ccccc1", "note": "[Example 44, 2-benzyl-9-hydroxy-3,4-dihydro-2H-pyrido[1,2-a]pyrazine-1,8-dione]", "values": [{"measurement": "pIC50", "value": "6.00 to 7.00"}]}, {"smiles": "O=C1c2c(O)c(=O)ccn2CCN1Cc1ccc(Cl)cc1", "note": "[Example 45, 2-(4-chlorobenzyl)-9-hydroxy-3,4-dihydro-2H-pyrido[1,2-a]pyrazine-1,8-dione]", "values": [{"measurement": "pIC50", "value": "7.00 to 8.00"}]}, {"smiles": "CC(C)c1cc(=O)c(O)c2n1CCN(Cc1ccc(Cl)c(Cl)c1)C2=O", "note": "[Example 46, 2-(3,4-dichlorobenzyl)-9-hydroxy-6-isopropyl-3,4-dihydro-2H-pyrido[1,2-a]pyrazine-1,8-dione]", "values": [{"measurement": "pIC50", "value": "7.00 to 8.00"}]}, {"smiles": "CC(C)C(=O)c1cc(=O)c(O)c2n1CCN(Cc1ccc(Cl)c(Cl)c1)C2=O", "note": "[Example 47, 2-(3,4-dichlorobenzyl)-9-hydroxy-6-isobutyryl-3,4-dihydro-2H-pyrido[1,2-a]pyrazine-1,8-dione]", "values": [{"measurement": "pIC50", "value": "> 8.00"}]}, {"smiles": "O=Cc1cc(=O)c(O)c2n1CCN(Cc1ccc(Cl)c(Cl)c1)C2=O", "note": "[Example 48, 2-(3,4-dichlorobenzyl)-9-hydroxy-1,8-dioxo-1,3,4,8-tetrahydro-2H-pyrido[1,2-a]pyrazine-6-carbaldehyde]", "values": [{"measurement": "pIC50", "value": "7.00 to 8.00"}]}, {"smiles": "O=C1c2c(O)c(=O)cc(-c3ccccc3)n2CCN1Cc1ccc(Cl)c(Cl)c1", "note": "[Example 49, 2-(3,4-dichlorobenzyl)-9-hydroxy-6-phenyl-3,4-dihydro-2H-pyrido[1,2-a]pyrazine-1,8-dione]", "values": [{"measurement": "pIC50", "value": "7.00 to 8.00"}]}, {"smiles": "O=C1c2c(O)c(=O)ccn2CCN1CCCc1ccccc1", "note": "[Example 50, 9-hydroxy-2-(3-phenylpropyl)-3,4-dihydro-2H-pyrido[1,2-a]pyrazine-1,8-dione]", "values": [{"measurement": "pIC50", "value": "7.00 to 8.00"}]}, {"smiles": "O=C1c2c(O)c(=O)ccn2CCN1Cc1cccc(Cl)c1F", "note": "[Example 51, 2-(3-chloro-2-fluorobenzyl)-9-hydroxy-3,4-dihydro-2H-pyrido[1,2-a]pyrazine-1,8-dione]", "values": [{"measurement": "pIC50", "value": "7.00 to 8.00"}]}, {"smiles": "CC(C)C(O)c1cc(=O)c(O)c2n1CCN(Cc1ccc(Cl)c(Cl)c1)C2=O", "note": "(centres unmarked) [Example 53, 2-(3,4-dichlorobenzyl)-9-hydroxy-6-(1-hydroxy-2-methylpropyl)-3,4-dihydro-2H-pyrido[1,2-a]pyrazine-1,8-dione]", "values": [{"measurement": "pIC50", "value": "7.00 to 8.00"}]}, {"smiles": "CC(C)Cc1cc(=O)c(O)c2n1CCN(Cc1ccc(Cl)c(Cl)c1)C2=O", "note": "[Example 54, 2-(3,4-dichlorobenzyl)-9-hydroxy-6-isobutyl-3,4-dihydro-2H-pyrido[1,2-a]pyrazine-1,8-dione]", "values": [{"measurement": "pIC50", "value": "7.00 to 8.00"}]}, {"smiles": "NC(=O)c1cc(=O)c(O)c2n1CCN(Cc1ccc(Cl)c(Cl)c1)C2=O", "note": "[Example 55, 2-(3,4-dichlorobenzyl)-9-hydroxy-1,8-dioxo-1,3,4,8-tetrahydro-2H-pyrido[1,2-a]pyrazine-6-carboxamide]", "values": [{"measurement": "pIC50", "value": "7.00 to 8.00"}]}, {"smiles": "CNC(=O)c1cc(=O)c(O)c2n1CCN(Cc1ccc(Cl)c(Cl)c1)C2=O", "note": "[Example 56, N-methyl-2-(3,4-dichlorobenzyl)-9-hydroxy-1,8-dioxo-1,3,4,8-tetrahydro-2H-pyrido[1,2-a]pyrazine-6-carboxamide]", "values": [{"measurement": "pIC50", "value": "7.00 to 8.00"}]}, {"smiles": "O=C1c2c(O)c(=O)ccn2CCN1Cc1ccc(Cl)c(F)c1", "note": "[Example 57, 2-(4-chloro-3-fluorobenzyl)-9-hydroxy-3,4-dihydro-2H-pyrido[1,2-a]pyrazine-1,8-dione]", "values": [{"measurement": "pIC50", "value": "7.00 to 8.00"}]}, {"smiles": "O=C(c1ccccc1)c1cc(=O)c(O)c2n1CCN(Cc1ccc(Cl)c(Cl)c1)C2=O", "note": "[Example 58, 6-benzoyl-2-(3,4-dichlorobenzyl)-9-hydroxy-3,4-dihydro-2H-pyrido[1,2-a]pyrazine-1,8-dione]", "values": [{"measurement": "pIC50", "value": "> 8.00"}]}, {"smiles": "CCC(=O)c1cc(=O)c(O)c2n1CCN(Cc1ccc(Cl)c(Cl)c1)C2=O", "note": "[Example 59, 2-(3,4-dichlorobenzyl)-9-hydroxy-6-propionyl-3,4-dihydro-2H-pyrido[1,2-a]pyrazine-1,8-dione]", "values": [{"measurement": "pIC50", "value": "> 8.00"}]}, {"smiles": "Cc1cc(=O)c(O)c2n1CCN(Cc1ccc(Cl)c(Cl)c1)C2=O", "note": "[Example 60, 2-(3,4-dichlorobenzyl)-9-hydroxy-6-methyl-3,4-dihydro-2H-pyrido[1,2-a]pyrazine-1,8-dione]", "values": [{"measurement": "pIC50", "value": "7.00 to 8.00"}]}]}
